This is an account of results in patent publication US9802960B2 (MILLENNIUM PHARMACEUTICALS, INC., priority 2014, dated 2017).

Usually inhibition stands for the drop in the measured response relative to a control, in per cent.

SMILES strings stand for the structures.

One experiment deals with Human VPS34 (Homo sapiens (Human), UniProt Q8NEB9). Kind of experiment: Human VPS34 enzyme assay (Adapta TR-FRET). The note with it: compound concentration 1.11 μM; read-out: Percent Inhibition. The format is biochemical. On the technique in general: In TR-FRET formats the signal depends on donor and acceptor labels being close together.
Chain of Human VPS34 (Q8NEB9 whole entry): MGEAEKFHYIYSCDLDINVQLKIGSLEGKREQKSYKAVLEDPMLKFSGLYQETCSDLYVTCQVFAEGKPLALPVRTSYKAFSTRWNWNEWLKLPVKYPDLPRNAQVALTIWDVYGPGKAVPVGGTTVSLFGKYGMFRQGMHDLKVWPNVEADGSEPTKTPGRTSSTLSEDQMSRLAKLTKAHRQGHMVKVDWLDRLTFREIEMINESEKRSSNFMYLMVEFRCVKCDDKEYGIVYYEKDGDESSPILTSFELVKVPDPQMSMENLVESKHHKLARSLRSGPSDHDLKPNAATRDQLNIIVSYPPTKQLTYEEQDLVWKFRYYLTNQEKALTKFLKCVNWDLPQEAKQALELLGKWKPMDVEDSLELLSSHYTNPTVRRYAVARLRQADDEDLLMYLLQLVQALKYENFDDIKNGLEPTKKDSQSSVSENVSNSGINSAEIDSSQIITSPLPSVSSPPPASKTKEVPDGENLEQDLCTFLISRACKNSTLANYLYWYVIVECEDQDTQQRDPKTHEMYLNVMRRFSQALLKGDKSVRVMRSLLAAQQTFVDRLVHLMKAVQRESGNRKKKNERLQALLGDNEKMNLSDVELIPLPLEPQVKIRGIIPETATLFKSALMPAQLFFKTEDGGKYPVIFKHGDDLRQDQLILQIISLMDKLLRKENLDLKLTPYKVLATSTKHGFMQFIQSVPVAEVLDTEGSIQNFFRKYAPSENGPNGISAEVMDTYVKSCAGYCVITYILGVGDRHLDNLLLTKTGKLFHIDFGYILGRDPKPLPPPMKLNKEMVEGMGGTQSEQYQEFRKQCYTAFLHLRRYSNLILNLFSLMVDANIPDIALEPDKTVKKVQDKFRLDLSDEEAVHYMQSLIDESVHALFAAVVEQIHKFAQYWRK
`CC(=O)Nc1cc(-c2cnc(Cl)c(NS(=O)(=O)c3ccc(C#N)cc3)c2C)ccn1` [Compound I-429, N-(6-chloro-5-{[(4-cyanophenyl)sulfonyl]amino}-4-methyl-3,4′-bipyridin-2′-yl)acetamide]: the inhibition at 1.11 µM came to 96%. For the compound `CN(C)S(=O)(=O)Nc1cc(-c2ccnc(Nc3ccnc(C4CC4)n3)c2)cn2nccc12` [Compound I-427, N′-(6-{2-[(2-cyclopropylpyrimidin-4-yl)amino]pyridin-4-yl}pyrazolo[1,5-a]pyridin-4yl)-N,N-dimethylsulfuric diamide], the inhibition at 1.11 µM is more than 99%.

For `CC(=O)Nc1cc(-c2cnc(N(C)C)c(S(=O)(=O)NC(C)(C)C)c2C)ccn1` [Compound I-487, N-[5-(tert-butylsulfamoyl)-6-(dimethylamino)-4-methyl-3,4′-bipyridin-2′-yl]acetamide], the inhibition at 1.11 µM is 71%. Still for that read-out and setting: then `CC(=O)Nc1cc(-c2cnc(Cl)c(NS(=O)(=O)c3ccc(F)cc3Cl)c2C)ccn1` [Compound I-290, N-(6-chloro-5-{[(2-chloro-4-fluorophenyl)sulfonyl]amino}-4-methyl-3,4′-bipyridin-2′-yl)acetamide], with more than 99%. As for `CC(=O)Nc1cc(-c2cc(NS(=O)(=O)c3ccc(F)cc3F)c(C)[n+]([O-])c2)ccn1` [Compound I-258, N-[4-(5-{[(2,4-difluorophenyl)sulfonyl]amino}-6-methyl-1-oxidopyridin-3-yl)pyridin-2-yl]acetamide], the inhibition at 1.11 µM was determined as 88%. Regarding `CC(=O)Nc1cc(-c2cnc(Cl)c(NS(=O)(=O)N3CC4CCC3C4)c2C)ccn1` (stereo not drawn) [Compound I-477, N-{5-[(2-azabicyclo[2.2.1]hept-2-ylsulfonyl)amino]-6-chloro-4-methyl-3,4′-bipyridin-2′-yl}acetamide], the inhibition at 1.11 µM stood at 93%. Still for that read-out and setting: then `CCNC(=O)Nc1cc(-c2ccnc(Nc3ccnc(C)n3)c2)cnc1C` [Compound I-367, 1-ethyl-3-{6-methyl-2′-[(2-methylpyrimidin-4-yl)amino]-3,4′-bipyridin-5-yl}urea], with 76%; and `CC(=O)Nc1cc(-c2cnc(C)c(NS(=O)(=O)c3c(Cl)cccc3Cl)c2)ccn1` [Compound I-463, N-(5-{[(2,6-dichlorophenyl)sulfonyl]amino}-6-methyl-3,4′-bipyridin-2′-yl)acetamide], with more than 99%. Take `CC(=O)Nc1cc(-c2cc(NS(=O)(=O)c3ccc(F)cc3F)c3ccnn3c2)ccn1` [Compound I-404, N-[4-(4-{[(2,4-difluorophenyl)sulfonyl]amino}pyrazolo[1,5-a]pyridin-6-yl)pyridin-2-yl]acetamide]: the inhibition at 1.11 µM is 94%.

With `CC(=O)Nc1cc(-c2cnc3c(c2)NS(=O)(=O)N3CC2CC2)ccn1` [Compound I-68, N-{4-[3-(cyclopropylmethyl)-2,2-dioxido-1,3-dihydro[1,2,5]thiadiazole[3,4-b]pyridin-6-yl]pyridin-2-yl}acetamide], the inhibition at 1.11 µM was 98%. On the same count and under the same terms, as for `CC(=O)Nc1cc(-c2cnc(N)c(S(C)(=O)=O)c2)ccn1` [Compound I-95, N-[6-amino-5-(methylsulfonyl)-3,4′-bipyridin-2′-yl]acetamide], the figure is more than 99%; as for `Cc1ncc(-c2ccnc(NC(=O)C3CC3(F)F)c2)cc1NS(=O)(=O)c1ccc(Cl)cc1F` (stereo not drawn) [Compound I-441, N-(5-{[(4-chloro-2-fluorophenyl)sulfonyl]amino}-6-methyl-3,4′-bipyridin-2′-yl)-2,2-difluorocyclopropanecarboxamide], more than 99%; as for `CN(C)c1ncc(-c2ccnc(Nc3ccncn3)c2)cc1C(=O)N(C)C12CC(C1)C2` [Compound I-284, N-(bicyclo[1.1.1]pent-1-yl)-6-(dimethylamino)-N-methyl-2′-(pyrimidin-4-ylamino)-3,4′-bipyridine-5-carboxamide], more than 99%.

With `CC(=O)Nc1cc(-c2cnc3ccn(S(=O)(=O)c4ccccc4)c3c2)ccn1` [Compound I-23, N-{4-[1-(phenylsulfonyl)-1H-pyrrolo[3,2-b]pyridin-6-yl]pyridin-2-yl}acetamide], the inhibition at 1.11 µM was more than 99%. For the compound `Cc1nccc(Nc2cc(-c3cnc(N(C)C)c(C(=O)N(C)C45CC(C4)C5)c3)ccn2)n1` [Compound I-306, N-(bicyclo[1.1.1]pent-1-yl)-6-(dimethylamino)-N-methyl-2′-((2-methylpyrimidin-4-yl)amino)-3,4′-bipyridine-5-carboxamide], the inhibition at 1.11 µM is more than 99%. With `Cc1ncc(-c2ccnc(Nc3ncccn3)c2)cc1NS(=O)(=O)c1ccc(F)cc1F` [Compound I-265, 2,4-difluoro-N-[6-methyl-2′-(pyrimidin-2-ylamino)-3,4′-bipyridin-5-yl]benzenesulfonamide], the inhibition at 1.11 µM was more than 99%. Take `CC(=O)Nc1cc(-c2cnc(C)c(NS(=O)(=O)c3cccc(C(F)(F)F)c3)c2)ccn1` [Compound I-168, N-[6-methyl-5-({[3-(trifluoromethyl)phenyl]sulfonyl}amino)-3,4′-bipyridin-2′-yl]acetamide]: the inhibition at 1.11 µM is more than 99%. On the same count and under the same terms, then `CC(=O)Nc1cc(-c2cnc(C)c(NS(=O)(=O)c3ccc(F)c(F)c3)c2)ccn1` [Compound I-59, N-(5-{[(3,4-difluorophenyl)sulfonyl]amino}-6-methyl-3,4′-bipyridin-2′-yl)acetamide], with more than 99%; and `CC(=O)Nc1cc(-c2cncc(Nc3ncco3)c2)ccn1` [Compound I-472, N-[5-(1,3-oxazol-2-ylamino)-3,4′-bipyridin-2′-yl]acetamide], with 96%. On the same count and under the same terms, then `Cc1c(-c2ccnc(Nc3ccnc(-c4ccccc4)n3)c2)cnc(Cl)c1NS(=O)(=O)c1ccc(F)cc1F` [Compound I-264, N-{6-chloro-4-methyl-2′-[(2-phenylpyrimidin-4-yl)amino]-3,4′-bipyridin-5-yl}-2,4-difluorobenzenesulfonamide], with 100%. The same measure, in the same setting: then `COc1ncc(-c2ccnc(NC(C)=O)c2)cc1S(=O)(=O)NC1CCC1` [Compound I-426, N-[5-(cyclobutylsulfamoyl)-6-methoxy-3,4′-bipyridin-2′-yl]acetamide], with more than 99%. On to `CC(=O)Nc1cc(-c2cnc(Cl)c(S(=O)(=O)NC3CCC3)c2)ccn1` [Compound I-438, N-[6-chloro-5-(cyclobutylsulfamoyl)-3,4′-bipyridin-2′-yl]acetamide], for which the inhibition at 1.11 µM was more than 99%.

For `CC(=O)Nc1cc(-c2cnc(N)c(S(=O)(=O)Cc3ccc4ccccc4c3)c2)ccn1` [Compound I-3], the inhibition at 1.11 µM was determined as 87%. Same read-out and setting: then `Cc1nccc(Nc2cc(-c3cncc(OC4CCc5c(F)cccc54)c3)ccn2)n1` (stereo not drawn) [Compound I-440, 5-[(4-fluoro-2,3-dihydro-1H-inden-1-yl)oxy]-N-(2-methylpyrimidin-4-yl)-3,4′-bipyridin-2′-amine], with 83%. Same read-out and setting: as for `Cc1c(-c2ccnc(Nc3ccncn3)c2)cnc(Cl)c1NS(=O)(=O)c1ccccc1` [Compound I-309, N-[6-chloro-4-methyl-2′-(pyrimidin-4-ylamino)-3,4′-bipyridin-5-yl]benzenesulfonamide], the figure is 99%. As for `COc1ncc(-c2ccnc(NC(C)=O)c2)cc1NS(=O)(=O)c1ccc(F)cc1F` [Compound I-104, N-(5-{[(2,4-difluorophenyl)sulfonyl]amino}-6-methoxy-3,4′-bipyridin-2′-yl)acetamide], the inhibition at 1.11 µM was more than 99%. The same measure, in the same setting: as for `CC(=O)Nc1cc(-c2cnc(C)c(NS(=O)(=O)c3ccc(F)cc3F)c2)cc[n+]1[O-]` [Compound I-219, N-[4-(5-{[(2,4-difluorophenyl)sulfonyl]amino}-6-methylpyridin-3-yl)-1-oxidopyridin-2-yl]acetamide], the figure is 92%; as for `CNc1ncc(-c2ccnc(NC(C)=O)c2)cc1S(=O)(=O)N(C(C)C)C(C)C` [Compound I-173, N-[5-(diisopropylsulfamoyl)-6-(methylamino)-3,4′-bipyridin-2′-yl]acetamide], more than 99%.

As to `CC(=O)Nc1cc(-c2cnc(N)c(N3CCCS3(=O)=O)c2)ccn1` [Compound I-181, N-[6-amino-5-(1,1-dioxidoisothiazolidin-2-yl)-3,4′-bipyridin-2′-yl]acetamide], the inhibition at 1.11 µM was more than 99%. Consider `CC(=O)Nc1cc(-c2cnc(C)c(NS(=O)(=O)c3cc(C)ccc3F)c2)ccn1` [Compound I-28, N-(5-{[(2-fluoro-5-methylphenyl)sulfonyl]amino}-6-methyl-3,4′-bipyridin-2′-yl)acetamide], for which the inhibition at 1.11 µM is more than 99%. On the same count and under the same terms, as for `CC(=O)Nc1cc(-c2cnc(N)c(NCC3CC3)c2)ccn1` [Compound I-35, N-{6-amino-5-[(cyclopropylmethyl)amino]-3,4′-bipyridin-2′-yl}acetamide], the figure is more than 99%; as for `CCc1ncc(-c2ccnc(NC(C)=O)c2)cc1NS(=O)(=O)c1ccc(F)cc1F` [Compound I-201, N-(5-{[(2,4-difluorophenyl)sulfonyl]amino}-6-ethyl-3,4′-bipyridin-2′-yl)acetamide], more than 99%. Regarding `Cc1ncc(-c2ccnc(NC(=O)C3CC3(F)F)c2)cc1NS(=O)(=O)c1ccc(F)cc1F` (racemic) [Compound I-16, (rac)-N-(5-{[(2,4-difluorophenyl)sulfonyl]amino}-6-methyl-3,4′-bipyridin-2′-yl)-2,2-difluorocyclopropanecarboxamide], the inhibition at 1.11 µM was more than 99%. For `Cc1nccc(Nc2cc(-c3cnc(C)c(OCc4ccccc4)c3)ccn2)n1` [Compound I-363, 5-(benzyloxy)-6-methyl-N-(2-methylpyrimidin-4-yl)-3,4′-bipyridin-2′-amine], the inhibition at 1.11 µM is 83%. On the same count and under the same terms, then `CC(=O)Nc1cc(-c2cnc(C)c(N3CCCNC3=O)c2)ccn1` [Compound I-460, N-[6-methyl-5-(2-oxotetrahydropyrimidin-1 (2H)-yl)-3,4′-bipyridin-2′-yl]acetamide], with 60%.

The same experiment, now with this note: read-out: Percent Inhibition.
Take `CC(=O)Nc1cc(-c2cnc(C)c(NS(=O)(=O)N3CCCCCC3)c2)ccn1` [Compound I-341, N-{5-[(azepan-1-ylsulfonyl)amino]-6-methyl-3,4′-bipyridin-2′-yl}acetamide]: the inhibition at 1.11 µM was more than 99%.
